According to US9708314B2, “Heterocyclic amide compound” (NISSAN CHEMICAL INDUSTRIES, LTD., priority 2013, dated 2017):

What was measured:
Format in all cases: in vivo
[1] = system: Echinochloa crus-galli var. crus-galli; assay: Test Example 3: herbicidal effect by application to foliage (Wagner pot, water depth 0.1-0.5 cm); settings: Nineteenth Table; application to foliage; application herbicide amount 320 g/ha
How it was run: (§1)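 Plants are raised 14 days from seed in flooded-surface Wagner pots at 25–30 °C, sprayed on stems and leaves with diluted emulsion at a predetermined rate, and rated three weeks on using a 0–5 herbicidal-ratio scale (5 ≥90%).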

Leptochloa chinensis = assay: as above; settings: Nineteenth Table; application to foliage; application herbicide amount 320 g/ha
How it was run: as §1

Abutilon theophrasti = assay: Test Example 4: herbicidal effect by application to foliage (diluvial soil, plastic box); settings: application to foliage; for herbicidal effect, M (Abutilon theophrasti): 320 g/ha
How it was run: (§2)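 Seeds sown in sterilized diluvial soil, covered ~1.5 cm, grown 14 days in greenhouse at 25° C. to 30° C. Emulsion formulation diluted in water to set rate (g/ha) and sprayed onto stems and leaves. Effect scored visually 3 weeks later on 0–5 scale (5 = ≥90% herbicidal ratio, 0 = ≤5%).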

Alopecurus myosuroides = assay: as above; settings: application to foliage; for herbicidal effect, J (Alopecurus myosuroides): 320 g/ha
How it was run: as §2

Apera spica-venti. = assay: as above; settings: application to foliage; for herbicidal effect, L (Apera spica-venti.): 320 g/ha
How it was run: as §2

Avena fatua = assay: as above; settings: application to foliage; for herbicidal effect, I (Avena fatua): 320 g/ha
How it was run: as §2

Chenopodium album = assay: as above; settings: application to foliage; for herbicidal effect, O (Chenopodium album): 320 g/ha
How it was run: as §2

Digitaria ciliaris = assay: as above; settings: application to foliage; for herbicidal effect, F (Digitaria ciliaris): 320 g/ha
How it was run: as §2

[2] = system: Echinochloa crus-galli var. crus-galli; assay: as above; settings: application to foliage; for herbicidal effect, H (Echinochloa crus-galli var. crus-galli): 320 g/ha
How it was run: as §2

Galium spurium = assay: as above; settings: application to foliage; for herbicidal effect, Q (Galium spurium): 320 g/ha
How it was run: as §2

Lolium multiflorum Lam. = assay: as above; settings: application to foliage; for herbicidal effect, K (Lolium multiflorum Lam.): 320 g/ha
How it was run: as §2

Setaria viridis = assay: as above; settings: application to foliage; for herbicidal effect, G (Setaria viridis): 320 g/ha
How it was run: as §2

[3] = system: Beta vulgaris ssp. vulgaris; assay: Test Example 4: effect on crop by application to foliage (diluvial soil, plastic box); settings: application to foliage; for effect on crop, f (Beta vulgaris ssp. vulgaris): 320 g/ha
How it was run: as §2

Brassica campestris L. = assay: as above; settings: application to foliage; for effect on crop, g (Brassica campestris L.): 320 g/ha
How it was run: as §2

Glycine max = assay: as above; settings: application to foliage; for effect on crop, c (Glycine max): 320 g/ha
How it was run: as §2

Triticum aestivum = assay: as above; settings: application to foliage; for effect on crop, e (Triticum aestivum): 320 g/ha
How it was run: as §2

Zea mays = assay: as above; settings: application to foliage; for effect on crop, b (Zea mays): 320 g/ha
How it was run: as §2

[4] = system: directly sowed Oryza sativa; assay: as above; settings: application to foliage; for effect on crop, d (directly sowed Oryza sativa): 320 g/ha
How it was run: as §2

[5] = application herbicide amount 320 g/ha

Compound | H (herbicidal effect grade) [1] | D (herbicidal effect grade) (Leptochloa chinensis) | herbicidal effect, M (Abutilon theophrasti) (Abutilon theophrasti) | herbicidal effect, J (Alopecurus myosuroides) (Alopecurus myosuroides) | herbicidal effect, L (Apera spica-venti.) (Apera spica-venti.) | herbicidal effect, I (Avena fatua) (Avena fatua) | herbicidal effect, O (Chenopodium album) (Chenopodium album) | herbicidal effect, F (Digitaria ciliaris) (Digitaria ciliaris) | herbicidal effect, H (Echinochloa crus-galli var. crus-galli) [2] | herbicidal effect, Q (Galium spurium) (Galium spurium) | herbicidal effect, K (Lolium multiflorum Lam.) (Lolium multiflorum Lam.) | herbicidal effect, G (Setaria viridis) (Setaria viridis) | effect on crop, f (Beta vulgaris ssp. vulgaris) [3] | effect on crop, g (Brassica campestris L.) (Brassica campestris L.) | effect on crop, c (Glycine max) (Glycine max) | effect on crop, e (Triticum aestivum) (Triticum aestivum) | effect on crop, b (Zea mays) (Zea mays) | effect on crop, d (directly sowed Oryza sativa) [4] | other results
CCSc1nnc2c(C(=O)Nc3ncnn3C)ccc(C(F)(F)F)n12 [4-003] | 4 (Herbicidal ratio of 70% or more and less than 90%) | 3 (Herbicidal ratio of 40% or more and less than 70%) | 4 (Herbicidal ratio of 70% or more and less than 90%) | 0 (Herbicidal ratio of 5% or less (almost no effect)) | 1 (Herbicidal ratio of 5% or more and less than 20%) | 0 (Herbicidal ratio of 5% or less (almost no effect)) | 5 (Herbicidal ratio of 90% or more (almost completely withered)) | 2 (Herbicidal ratio of 20% or more and less than 40%) | 4 (Herbicidal ratio of 70% or more and less than 90%) | 1 (Herbicidal ratio of 5% or more and less than 20%) | 0 (Herbicidal ratio of 5% or less (almost no effect)) | 1 (Herbicidal ratio of 5% or more and less than 20%) | 4 (Herbicidal ratio of 70% or more and less than 90%) | 1 (Herbicidal ratio of 5% or more and less than 20%) | 0 (Herbicidal ratio of 5% or less (almost no effect)) | 0 (Herbicidal ratio of 5% or less (almost no effect)) | 0 (Herbicidal ratio of 5% or less (almost no effect)) | 4 (Herbicidal ratio of 70% or more and less than 90%) | –
Cn1nnnc1NC(=O)c1ccc(C(F)(F)F)n2c(SC3CCCC3)nnc12 [2-096] | 0 (Herbicidal ratio of 5% or less (almost no effect)) | 0 (Herbicidal ratio of 5% or less (almost no effect)) | 5 (Herbicidal ratio of 90% or more (almost completely withered)) | 0 (Herbicidal ratio of 5% or less (almost no effect)) | 0 (Herbicidal ratio of 5% or less (almost no effect)) | 1 (Herbicidal ratio of 5% or more and less than 20%) | 5 (Herbicidal ratio of 90% or more (almost completely withered)) | 5 (Herbicidal ratio of 90% or more (almost completely withered)) | 5 (Herbicidal ratio of 90% or more (almost completely withered)) | 3 (Herbicidal ratio of 40% or more and less than 70%) | 0 (Herbicidal ratio of 5% or less (almost no effect)) | 4 (Herbicidal ratio of 70% or more and less than 90%) | 5 (Herbicidal ratio of 90% or more (almost completely withered)) | 0 (Herbicidal ratio of 5% or less (almost no effect)) | 0 (Herbicidal ratio of 5% or less (almost no effect)) | 0 (Herbicidal ratio of 5% or less (almost no effect)) | 0 (Herbicidal ratio of 5% or less (almost no effect)) | 3 (Herbicidal ratio of 40% or more and less than 70%) | –
Cn1nnnc1NC(=O)c1ccc(C(F)(F)F)n2c(SCc3ccc(Cl)nc3)nnc12 [2-097] | 2 (Herbicidal ratio of 20% or more and less than 40%) | 3 (Herbicidal ratio of 40% or more and less than 70%) | 3 (Herbicidal ratio of 40% or more and less than 70%) | 1 (Herbicidal ratio of 5% or more and less than 20%) | 2 (Herbicidal ratio of 20% or more and less than 40%) | 2 (Herbicidal ratio of 20% or more and less than 40%) | 5 (Herbicidal ratio of 90% or more (almost completely withered)) | 4 (Herbicidal ratio of 70% or more and less than 90%) | 5 (Herbicidal ratio of 90% or more (almost completely withered)) | 3 (Herbicidal ratio of 40% or more and less than 70%) | 1 (Herbicidal ratio of 5% or more and less than 20%) | 3 (Herbicidal ratio of 40% or more and less than 70%) | 4 (Herbicidal ratio of 70% or more and less than 90%) | 1 (Herbicidal ratio of 5% or more and less than 20%) | 0 (Herbicidal ratio of 5% or less (almost no effect)) | 0 (Herbicidal ratio of 5% or less (almost no effect)) | 0 (Herbicidal ratio of 5% or less (almost no effect)) | 3 (Herbicidal ratio of 40% or more and less than 70%) | –
Cc1nnc(NC(=O)c2ccc(C(F)(F)F)n3c(CC#N)nnc23)o1 [1-168] | 4 (Herbicidal ratio of 70% or more and less than 90%) | 3 (Herbicidal ratio of 40% or more and less than 70%) | – | – | – | – | – | – | – | – | – | – | – | – | – | – | – | – | M: herbicidal effect on Abutilon theophrasti (Abutilon theophrasti; [5]): 3 (Herbicidal ratio of 40% or more and less than 70%); J: herbicidal effect on Alopecurus myosuroides (Alopecurus myosuroides; [5]): 0 (Herbicidal ratio of 5% or less (almost no effect)); L: herbicidal effect on Apera spica-venti. (Apera spica-venti.; [5]): 0 (Herbicidal ratio of 5% or less (almost no effect)); I: herbicidal effect on Avena fatua (Avena fatua; [5]): 1 (Herbicidal ratio of 5% or more and less than 20%); O: herbicidal effect on Chenopodium album (Chenopodium album; [5]): 5 (Herbicidal ratio of 90% or more (almost completely withered)); F: herbicidal effect on Digitaria ciliaris (Digitaria ciliaris; [5]): 5 (Herbicidal ratio of 90% or more (almost completely withered)); H: herbicidal effect on Echinochloa crus-galli var. crus-galli [2, 5]: 5 (Herbicidal ratio of 90% or more (almost completely withered)); Q: herbicidal effect on Galium spurium (Galium spurium; [5]): 1 (Herbicidal ratio of 5% or more and less than 20%); K: herbicidal effect on Lolium multiflorum Lam. (Lolium multiflorum Lam.; [5]): 1 (Herbicidal ratio of 5% or more and less than 20%); G: herbicidal effect on Setaria viridis (Setaria viridis; [5]): 4 (Herbicidal ratio of 70% or more and less than 90%); f: effect on crop, Beta vulgaris ssp. vulgaris [3, 5]: 5 (Herbicidal ratio of 90% or more (almost completely withered)); g: effect on crop, Brassica campestris L. (Brassica campestris L.; [5]): 3 (Herbicidal ratio of 40% or more and less than 70%); d: effect on crop, Glycine max (Glycine max; [5]): 3 (Herbicidal ratio of 40% or more and less than 70%); e: effect on crop, Triticum aestivum (Triticum aestivum; [5]): 1 (Herbicidal ratio of 5% or more and less than 20%); c: effect on crop, Zea mays (Zea mays; [5]): 0 (Herbicidal ratio of 5% or less (almost no effect)); b: effect on crop, directly sowed Oryza sativa [4, 5]: 3 (Herbicidal ratio of 40% or more and less than 70%)
